From PMC4424350, “Unraveling the Specific Regulation of the Central Pathway for Anaerobic Degradation of 3-Methylbenzoate” (The Journal of Biological Chemistry, 2015)

Molecular target: T1, MbdR (MbdR-His6) (Azoarcus sp., UniProt Z9KMW0QJC7)
T1 construct: full-length, C-terminal His6 (pETmbdR), expressed in E. coli BL21(DE3), Ni-NTA; dimer in solution
Test: gel retardation (release of promoter DNA); DNase I footprinting; in vitro transcription
Assay type: binding
Conditions: inducer; 30 nM MbdR-His6 with PO or PB1 DNA probe, 20 mM Tris-HCl pH 7.5, 50 mM KCl, 30 °C

Compound: Cc1cccc(C(=O)SCCNC(=O)CCNC(=O)[C@H](O)C(C)(C)COP(=O)(O)OP(=O)(O)OC[C@H]2O[C@@H](n3cnc4c(N)ncnc43)[C@H](O)[C@@H]2OP(=O)(O)O)c1 [3-methylbenzoyl-CoA]
- gel retardation (release of promoter DNA); DNase I footprinting; in vitro transc: 3-methylbenzoyl-CoA inhibited the interaction of MbdR with the PO and PB1 probes
